Experimental data reported in patent US6410041B1, “Culturing cells in presence of amphipathic weak bases and/or cations and multiple drug resistance inhibitor containing reserpine” (priority 1998, dated 2002).
Converted amounts (≈) assume the structure as drawn. “And” between values parts separate entries of the source, which are not always exact repeats. Identical values can stand only once. Like-named read-outs stand apart in the source and are kept apart here.

Key:
[1] = test system: Staphylococcus aureus RN 4222 (WT); experiment: MIC determination in wild type S. aureus; format: cell-based; settings: for effect of pH 9 on sensitivity / effectiveness: change of pH from 7 to 9
Method: (§1) Determination of minimal inhibitory concentrations (MICs). MICs were determined by serial two-fold dilution of antimicrobials in Mueller-Hinton broth containing chloramphenicol ([…]). […] Around 10^5 cells were inoculated in 1 ml of medium for the test. MICs were read after 18 hours of incubation at 37 C. with aeration. The 50% inhibitory concentration (IC50) was determined by growing cells in microtiter plate wells and reading the optical density after overnight growth at 650 nm.

[2] = test system: Staphylococcus aureus KLE 820 (norA−); experiment: microbe, parasite or virus in culture; format: cell-based; settings: for Sensitivity of norA- as compared to the wild type: in the absence of reserpine; for effect of addition of reserpine on sensitivity to drugs: norA mutant
From the text: Disruption of the norA gene. Chloramphenicol acetyltransferase (CAT) gene was isolated by digesting plasmid pLI50 (10) with Sau3A (New England Biolabs). The CAT gene was cloned into the BamHI site of plasmid pSP72 (Promega) to yield plasmid PCH22. Chromosomal DNA from S. aureus RN4220 was isolated according to the protocol of Qiagen, Inc. Part of the 1050 bp norA gene lacking a 80 bp N-terminus and a 20 bp C-terminus was PCR-amplified from chromosomal DNA using primer A:5′-[…]-[…] and primer B:5′-[…]. This fragment was cloned into the EcoRI/EcoRV site of PCH22 to yield plasmid PCH23. S. aureus were transformed by PCH23 using electroporation (11). Cells were plated on trypticase soy agar (TSA) with chloramphenicol. A transformant colony was picked after 24 hours of incubation at 37 C., regrown, plated on CAM medium and a large colony was picked for further work.
as §1

S. aureus = experiment: MICs of antimicrobials with small molecule MDR inhibitor (I) and high pH; format: cell-based, Staphylococcus aureus; settings: for potentiation by high pH and MDR inhibitor: high pH combined with MDR inhibitor / MDR inactivation; for Potentiation factor (pH 7/(pH 9 + I)): pH 7 vs pH 9 + I
Method: as §1

[3] = Staphylococcus aureus, RN 4222 (WT), pH 7.2, read-out: MIC
[4] = Staphylococcus aureus, RN 4222 (WT), pH 9, read-out: MIC
[5] = Staphylococcus aureus, RN 4222 (WT), −R (no reserpine), read-out: MIC
[6] = Staphylococcus aureus, pH 7, read-out: MIC
[7] = Staphylococcus aureus, pH 9, read-out: MIC
[8] = RN 4222 (WT), +R (20 μg/mL reserpine)
[9] = KLE 820 (norA−), +R (20 μg/mL reserpine)
[10] = Staphylococcus aureus, pH 7.2, KLE 820 (norA−), pH 7.2
[11] = Staphylococcus aureus, pH 9, KLE 820 (norA−), pH 9

**Q.** Which MIC [1, 3] does the source give for COc1ccc(C[C@H](N)C(=O)N[C@H]2[C@@H](O)[C@H](n3cnc4c(N(C)C)ncnc43)O[C@@H]2CO)cc1 [Puromycin] here?
**A.** 20 µg/mL (≈ 42.4 µM)

**Q.** What about the MIC [1, 4] of the same compound?
**A.** 2.5 µg/mL (≈ 5.3 µM)

**Q.** What about the “Sensitivity norA− at pH 9 vs. WT at pH 7.2” value [2] of the same compound?
**A.** 8

**Q.** How did the MIC [1, 5] turn out when CC(=O)OCC1=C(C(=O)O)N2C(=O)[C@@H](NC(=O)Cc3cccs3)[C@H]2SC1 [Cephalothin] was run?
**A.** 0.15 µg/mL (≈ 0.378 µM)

**Q.** And the “Sensitivity of norA- as compared to the wild type” value [2]?
**A.** 1

**Q.** What does the source list for C[n+]1cc2c3c(ccc2c2ccc4cc5c(cc4c21)OCO5)OCO3 [Sanguinarine]?
**A.** MIC (S. aureus; [6]): 2.5 µg/mL; MIC (S. aureus; [7]): 1.25 µg/mL; potentiation by high pH and MDR inhibitor (S. aureus): approximately 100 fold; MIC (S. aureus; pH 7 + I (10 μg/mL)): 0.67 µg/mL; Ratio (S. aureus; pH 7 vs pH 7 + I): 3.7; Potentiation factor (pH 7/(pH 9 + I)) (S. aureus): 16.6; MIC (S. aureus; pH 9 + I): 0.15 µg/mL; Ratio (S. aureus; pH 9 vs pH 9 + I): 8.3

**Q.** With Acriflavine as the compound, how does the MIC [1, 8] read?
**A.** 10 µg/mL

**Q.** What about the MIC ([1]; RN 4222 (WT), −R (no reserpine)) of the same compound?
**A.** 20 µg/mL

**Q.** What about the MIC [2, 9] of the same compound?
**A.** 2.5 µg/mL

**Q.** And the MIC ([2]; KLE 820 (norA−), −R (no reserpine))?
**A.** 2.5 µg/mL

**Q.** And the “Sensitivity of norA- as compared to the wild type” value [2]?
**A.** 8

**Q.** N=C(N)c1ccc(OCCCCCOc2ccc(C(=N)N)cc2)cc1 [Pentamidine] was tested. Which MIC ([1]; Staphylococcus aureus, pH 9) did it give?
**A.** 0.312 µg/mL (≈ 0.918 µM)

**Q.** And the MIC [1, 3]?
**A.** 10 µg/mL (≈ 29.4 µM)

**Q.** And the “effect of pH 9 on sensitivity / effectiveness” value [1]?
**A.** significantly increased the effectiveness

**Q.** What about the MIC [2, 10] of the same compound?
**A.** 0.312 µg/mL (≈ 0.918 µM)

**Q.** What about the MIC [2, 11] of the same compound?
**A.** 0.0097 µg/mL (≈ 0.0285 µM)

**Q.** And the MIC ([2]; Staphylococcus aureus, pH 9, pH 9 and norA mutation)?
**A.** 0.01 µg/mL (≈ 0.0294 µM)

**Q.** What about the “increase in sensitivity, pH 9 combined with norA mutation” value ([2]; norA− at pH 9 vs wild type at neutral pH) of the same compound?
**A.** 1,000 fold

**Q.** What about the “increase in sensitivity by norA mutation” value ([2]; norA− vs wild type) of the same compound?
**A.** 30 fold and 33 fold

**Q.** What about the MIC (S. aureus; [6]) of the same compound?
**A.** 10 µg/mL (≈ 29.4 µM)

**Q.** And the MIC (S. aureus; [7])?
**A.** 0.3 µg/mL (≈ 0.881 µM)

**Q.** What about the MIC (S. aureus; pH 7 + I (10 μg/mL)) of the same compound?
**A.** 0.33 µg/mL

**Q.** What about the “Potentiation factor (pH 7/(pH 9 + I))” value (S. aureus) of the same compound?
**A.** 500

**Q.** And the MIC (S. aureus; pH 9 + I)?
**A.** 0.02 µg/mL

**Q.** CN[C@H](CC(C)C)C(=O)N[C@H]1C(=O)N[C@@H](CC(N)=O)C(=O)N[C@H]2C(=O)N[C@H]3C(=O)N[C@H](C(=O)N[C@H](C(=O)O)c4cc(O)cc(O)c4-c4cc3ccc4O)[C@H](O)c3ccc(c(Cl)c3)Oc3cc2cc(c3O[C@@H]2O[C@H](CO)[C@@H](O)[C@H](O)[C@H]2O[C@H]2C[C@](C)(N)[C@H](O)[C@H](C)O2)Oc2ccc(cc2Cl)[C@H]1O [Vancomycin] was tested. Which MIC ([1]; Staphylococcus aureus) did it give?
**A.** 1.5 µg/mL (≈ 1.04 µM)

**Q.** What about the MIC ([2]; Staphylococcus aureus) of the same compound?
**A.** 1.5 µg/mL (≈ 1.04 µM)

**Q.** And the “Sensitivity of norA- as compared to the wild type” value [2]?
**A.** 1

**Q.** Which results are given for COc1cc2c(cc1OC)-c1cc3ccc(OC)c(OC)c3c[n+]1CC2 [Palmatine]?
**A.** MIC ([1]; RN 4222 (WT), pH 7.2): 200 µg/mL; MIC ([1]; RN 4222 (WT), pH 9): 12.5 µg/mL; MIC ([2]; KLE 820 (norA−), pH 7.2): 50 µg/mL; MIC ([2]; KLE 820 (norA−), pH 9): 0.78 µg/mL; substrate of NorA ([2]; based on comparison of MIC from wild type and norA−): substrates of NorA; substrate of MDR pumps (S. aureus; cationic plant antimicrobial alkaloids): good substrates of MDR pumps; MIC (S. aureus; pH 7): 100 µg/mL; MIC (S. aureus; pH 7 + I (10 μg/mL)): 1.6 µg/mL; Potentiation factor (pH 7/(pH 9 + I)) (S. aureus): 1,250; MIC (S. aureus; pH 9): 25 µg/mL; MIC (S. aureus; pH 9 + I): 0.08 µg/mL

**Q.** [H]/N=C(\N/C(=N/[H])NCCCCCCNC(=N)NC(=N)Nc1ccc(Cl)cc1)Nc1ccc(Cl)cc1 [Chlorhexidine] was tested. Which MIC [1, 3] did it give?
**A.** 0.5 µg/mL (≈ 0.989 µM)

**Q.** What about the MIC [1, 4] of the same compound?
**A.** 0.06 µg/mL (≈ 0.119 µM)

**Q.** What about the “effect of pH 9 on sensitivity / effectiveness” value [1] of the same compound?
**A.** significantly increased the effectiveness

**Q.** What about the MIC [2, 10] of the same compound?
**A.** 0.125 µg/mL (≈ 0.247 µM)

**Q.** And the MIC [2, 11]?
**A.** 0.0156 µg/mL (≈ 0.0309 µM)

**Q.** What about the “Sensitivity norA− at pH 9 vs. WT at pH 7.2” value [2] of the same compound?
**A.** 32

**Q.** What about the MIC (S. aureus; [6]) of the same compound?
**A.** 0.5 µg/mL (≈ 0.989 µM)

**Q.** And the MIC (S. aureus; [7])?
**A.** 0.12 µg/mL (≈ 0.237 µM)

**Q.** And the “potentiation by high pH and MDR inhibitor” value (S. aureus)?
**A.** 133 fold

**Q.** And the MIC (S. aureus; pH 7 + I (10 μg/mL))?
**A.** 0.06 µg/mL

**Q.** What about the Ratio (S. aureus; pH 7 vs pH 7 + I) of the same compound?
**A.** 8.3

**Q.** What about the “Potentiation factor (pH 7/(pH 9 + I))” value (S. aureus) of the same compound?
**A.** 133

**Q.** And the MIC (S. aureus; pH 9 + I)?
**A.** 0.0037 µg/mL

**Q.** What about the Ratio (S. aureus; pH 9 vs pH 9 + I) of the same compound?
**A.** 32

**Q.** Which “effect of addition of reserpine on sensitivity to drugs” value (from here on “effect of addition of reserpine”) ([1]; wild type) does the source give for COC(=O)[C@H]1[C@H]2C[C@@H]3c4[nH]c5cc(OC)ccc5c4CCN3C[C@H]2C[C@@H](OC(=O)c2cc(OC)c(OC)c(OC)c2)[C@@H]1OC [Reserpine] here?
**A.** increased the sensitivity of the wild type to drugs

**Q.** What about the “effect of addition of reserpine” value [2] of the same compound?
**A.** virtually no effect

**Q.** What about the “effect of addition of reserpine” value ([2]; listed as Reserpin) of the same compound?
**A.** failed to further increase sensitivity

**Q.** With [Br-].c1ccc([P+](c2ccccc2)(c2ccccc2)c2ccccc2)cc1 [TPP, tetraphenylphosphonium bromide] as the compound, how does the MIC [1, 8] read?
**A.** 7.8 µg/mL

**Q.** And the MIC ([1]; Staphylococcus aureus)?
**A.** 15.6 µg/mL

**Q.** What about the MIC ([1]; Staphylococcus aureus, pH 7.2) of the same compound?
**A.** 15.6 µg/mL

**Q.** And the MIC ([1]; Staphylococcus aureus, pH 9)?
**A.** 0.48 µg/mL

**Q.** And the MIC [2, 9]?
**A.** 1.9 µg/mL

**Q.** And the MIC ([2]; Staphylococcus aureus, KLE 820 (norA−), −R (no reserpine))?
**A.** 1.9 µg/mL

**Q.** What about the MIC [2, 10] of the same compound?
**A.** 1.98 µg/mL

**Q.** What about the MIC [2, 11] of the same compound?
**A.** 0.12 µg/mL

**Q.** And the “Sensitivity of norA- as compared to the wild type” value [2]?
**A.** 8

**Q.** And the “Sensitivity norA− at pH 9 vs. WT at pH 7.2” value [2]?
**A.** 130

**Q.** With CCC[C@@H]1C[C@@H](C(=O)N[C@@H]([C@H]2O[C@H](SC)[C@H](O)[C@@H](O)[C@H]2O)[C@H](C)Cl)N(C)C1 [Clindamycin] as the compound, how does the MIC [1, 5] read?
**A.** 0.047 µg/mL (≈ 0.111 µM)

**Q.** And the “Sensitivity of norA- as compared to the wild type” value [2]?
**A.** 1
